# Measurements: patent publication US6762170B1, “2-(purin-9-yl)-tetrahydrofuran-3,4-diol derivatives” (SmithKlineBeecham Corporation, priority 1998, dated 2004)
# Counter-ions that a name gives are not always drawn.
# How the values were obtained:
# Format in all cases: cell-based
# Adenosine 2a receptor = target: T1, Adenosine 2a receptor (Homo sapiens, UniProt P29274); experiment: Agonist activity against adenosine 2a receptor subtype (CHO cells, cAMP response element/SPAP reporter); conditions: EC50 ratio to NECA; transfected CHO cells, basal cAMP reflected by SPAP
# T1 construct: expressed in transfected cells; host or cells: Chinese hamster ovary (CHO) cells, co-transfected with a CRE-SPAP reporter
# T1 sequence (P29274 whole entry): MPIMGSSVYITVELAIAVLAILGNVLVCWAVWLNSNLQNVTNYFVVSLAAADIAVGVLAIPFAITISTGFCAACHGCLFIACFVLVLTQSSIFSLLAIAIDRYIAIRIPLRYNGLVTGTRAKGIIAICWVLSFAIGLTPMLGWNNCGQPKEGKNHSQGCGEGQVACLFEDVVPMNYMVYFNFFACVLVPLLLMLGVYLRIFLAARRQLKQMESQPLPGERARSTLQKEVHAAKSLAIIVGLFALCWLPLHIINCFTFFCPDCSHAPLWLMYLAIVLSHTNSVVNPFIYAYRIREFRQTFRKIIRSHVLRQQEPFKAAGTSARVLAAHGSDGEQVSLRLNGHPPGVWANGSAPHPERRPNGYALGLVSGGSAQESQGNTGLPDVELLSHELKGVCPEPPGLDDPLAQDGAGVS
# Description: (§1) (1) Agonist Activity Against Adenosine 2a, Adenosine 1 and Adenosine 3 Receptor Subtypes.
# (§2) Agonist selectivity of compounds against other human adenosine receptors is determined using Chinese hamster ovary (CHO) cells transfected with the gene for the relevant human adenosine receptor following a method based on that of Castanon and Spevak, 1994. The CHO cells are also transfected with cyclic AMP response elements promoting the gene for secreted placental alkaline phosphatase (SPAP) (Wood, 1995). The effect of test compounds may be determined by their effects on basal levels of cAMP (A2a) or on forskolin-enhanced cAMP (A1 and A3) as reflected by changes in levels of SPAP. EC50 values for compounds may then be determined as a ratio to that of the non-selective agonist N-ethyl carboxamide adenosine (NECA).
# (§3) Values given in the Table are EC50 values as a ratio of that of NECA.
# Adenosine 3 receptor = target: T2, Adenosine 3 receptor (Homo sapiens, UniProt P0DMS8); experiment: Agonist activity against adenosine 3 receptor subtype (CHO cells, forskolin-enhanced cAMP, SPAP reporter); conditions: EC50 ratio to NECA; transfected CHO cells, forskolin-enhanced cAMP reflected by SPAP
# T2 construct: expressed in transfected cells; host or cells: Chinese hamster ovary (CHO) cells, co-transfected with a CRE-SPAP reporter
# T2 sequence (P0DMS8 1-318): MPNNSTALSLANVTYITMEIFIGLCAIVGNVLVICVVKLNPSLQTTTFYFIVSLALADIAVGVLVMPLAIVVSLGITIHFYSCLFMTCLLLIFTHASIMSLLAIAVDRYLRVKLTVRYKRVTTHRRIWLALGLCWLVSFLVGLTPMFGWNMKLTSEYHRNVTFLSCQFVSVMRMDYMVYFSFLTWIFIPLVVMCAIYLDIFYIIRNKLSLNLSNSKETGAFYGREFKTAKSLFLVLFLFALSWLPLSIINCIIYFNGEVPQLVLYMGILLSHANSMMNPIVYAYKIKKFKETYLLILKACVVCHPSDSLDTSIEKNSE
# Description: as §1, §2, §3
# Adenosine 1 receptor = target: T3, Adenosine 1 receptor (Homo sapiens, UniProt P30542); experiment: Agonist activity against adenosine 1 receptor subtype (CHO cells, forskolin-enhanced cAMP, SPAP reporter); conditions: EC50 ratio to NECA; transfected CHO cells, forskolin-enhanced cAMP reflected by SPAP
# T3 construct: expressed in transfected cells; host or cells: Chinese hamster ovary (CHO) cells, co-transfected with a CRE-SPAP reporter
# T3 sequence (P30542 1-326): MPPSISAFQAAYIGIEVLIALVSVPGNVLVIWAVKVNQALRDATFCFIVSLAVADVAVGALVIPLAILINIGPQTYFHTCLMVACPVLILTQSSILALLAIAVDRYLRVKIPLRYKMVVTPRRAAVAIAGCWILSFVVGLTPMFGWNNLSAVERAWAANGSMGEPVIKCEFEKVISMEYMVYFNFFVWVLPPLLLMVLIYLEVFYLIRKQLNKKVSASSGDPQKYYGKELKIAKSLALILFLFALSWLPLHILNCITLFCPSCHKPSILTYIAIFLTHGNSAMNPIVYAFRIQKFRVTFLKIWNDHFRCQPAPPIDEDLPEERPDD
# Description: as §1, §2, §3
A2a (EC50 values as a ratio of that of NECA) (Adenosine 2a receptor),A3 (EC50 values as a ratio of that of NECA) (Adenosine 3 receptor),A1 (EC50 values as a ratio of that of NECA) (Adenosine 1 receptor),Compound
27.39,>184,149.86,"CCc1cc(C2OC(n3cnc4c(NC(CO)C(C)C)nc(NCCN5CCCCC5)nc43)C(O)C2O)on1 [Example 70, (2S,3S,4R,5R)-2-(3-Ethyl-isoxazol-5-yl)-5-[6-(1(1S-hydroxymethyl-2-methyl-propylamino)-2-(2-piperidin-1-yl-ethylamino)-purin-9-yl]-tetrahydro-furan-3,4-diol diformate]"
2.59,>238,219.1,"CCC(CC)Nc1nc(NCCN2CCCCC2)nc2c1ncn2C1OC(c2cc(Br)no2)C(O)C1O.O=CO.O=CO [Example 67, (2S,3S,4R,5R)-2-(3-Bromo-isoxazol-5-yl)-5-[6-(1-ethyl-propylamino)-2-(2-piperidin-1-yl-ethylamino)-purin-9-yl]-tetrahydro-furan-3,4-diol diformate]"
10.3,>221,725.4,"CCc1cc(C2OC(n3cnc4c(NCc5ccccc5)nc(NCCN5CCCCC5)nc43)C(O)C2O)on1.O=CO.O=CO [Example 44, (2R,3R,4S,5S)-2-[6-Benzylamino-2-(2-piperidin-1-yl-ethylamino)-purin-9-yl]-5-(3-ethyl-isoxazol-5-yl)-tetrahydro-furan-3,4-diol diformate]"
0.066,>350,10.18,"CCC(CC)Nc1nc(NCCN2CCCCC2)nc2c1ncn2[C@@H]1O[C@H](c2cc(C(C)O)no2)[C@@H](O)[C@H]1O.O=CO.O=CO (stereo partly drawn) [Example 54, (2R,3R,4S,5S)-2-[6-(1-Ethyl-propylamino)-2-(2-piperidin-1-yl-ethylamino)-purin-9-yl]-5-[3-(1-hydroxy-ethyl)-isoxazol-5-yl]-tetrahydro-furan-3,4-diol diformate]"
1.32,>375,231,"CCc1cc(C2OC(n3cnc4c(NCCc5ccccc5)nc(NCCN5CCCCC5)nc43)C(O)C2O)on1.O=CO.O=CO [Example 3, (2R,3R,4S,5S)-2-(3-Ethyl-isoxazol-5-yl)-5-[6-phenethylamino-2-(2-piperidin-1-yl-ethylamino)-purin-9-yl]-tetrahydro-furan-3,4-diol diformate]"

# More lines, now with the values behind:
Compound,A2a (EC50 values as a ratio of that of NECA) (Adenosine 2a receptor),A3 (EC50 values as a ratio of that of NECA) (Adenosine 3 receptor),A1 (EC50 values as a ratio of that of NECA) (Adenosine 1 receptor)
"CCc1cc(C2OC(n3cnc4c(NC(CC)CC)nc(NCCc5ccccn5)nc43)C(O)C2O)on1 [Example 37, (2S,3S,4R,5R)-2-(3-Ethyl-isoxazol-5-yl)-5-[61-ethyl-propylamino)-2-(2-pyridin-2-yl-ethylamino)-purin-9-yl]-tetrahydro-furan-3,4-diol diformate]",2.65,>207,136.56
"CCc1cc(C2OC(n3cnc4c(NC(CC)CC)nc(NC5CCNC5)nc43)C(O)C2O)on1 [Example 36, (2S,3S,4R,5R)-2-(3-Ethyl-isoxazol-5-yl)-5-[6-(1(-ethyl-propylamino)-2-(pyrrolidin-3R-ylamino)-purin-9-yl]-tetrahydro-furan-3,4-diol diformate]",4.7,>207,68.32
"CCc1cc(C2OC(n3cnc4c(NC(CC)CC)nc(NC5CCC(N)CC5)nc43)C(O)C2O)on1.O=CO.O=CO [Example 39, (2R,3R,4S,5S)-2-[2(trans-4-Amino-cyclohexylamino)-6(1-ethyl-propylamino)-purin-9-yl]-5-(3-ethyl-isoxazol-5-yl)-tetrahydro-furan-3,4-diol diformate]",2.12,>85,86.8
"CCc1cc(C2OC(n3cnc4c(NCC(c5ccccc5)c5ccccc5)nc(NC5CCC(NC(C)=O)CC5)nc43)C(O)C2O)on1 (stereo not drawn) [Example 24, N-(4-{6-(2,2-Diphenyl-ethylamino)-9-[5S-(3-ethyl-isoxazol-5-yl)-3R,4S-dihydroxy-tetrahydro-furan-2R-yl]-9H-purin-2-ylamino}-cyclohexyl)-acetamide formate]",0.23,>248,573.6
"CCc1cc(C2OC(n3cnc4c(NC5CCN(C(C)=O)CC5)nc(NC5CCC(N)CC5)nc43)C(O)C2O)on1 (stereo not drawn) [Example 29, 1-(4-{2-(trans-4-Amino-cyclohexylamino)-9-[5S-(3-ethyl-isoxazol-5-yl)-3R,4S-dihydroxy-tetrahydro-furan-2R-yl]-9H-purin-6-ylamino}-piperidin-1-yl)-ethanone diformate]",5.03,>298,27.24
"CCc1cc(C2OC(n3cnc4c(NC(CO)Cc5ccccc5)nc(NCCN5CCCCC5)nc43)C(O)C2O)on1 [Example 45, (2S,3S,4R,5R)-2-(3-Ethyl-isoxazol-5-yl)-5-[6-(1S-hydroxymethyl-2-phenyl-ethylamino)-2-(2-piperidin-1-yl-ethylamino)-purin-9-yl]-tetrahydro-furan-3,4-diol diformate]",1.93,>189,54.04
"CCc1cc([C@H]2O[C@@H](n3cnc4c(NC(CC)CC)nc(NC5CCCC5)nc43)[C@H](O)[C@@H]2O)on1.O=CO [Example 46, (2R,3R,4S,5S)-2-[2-(Cyclopentylamino)-6-(1-ethyl-propylamino)-purin-9-yl]-5-(3-ethyl-isoxazol-5-yl)-tetrahydro-furan-3,4-diol formate]",20.06,>518,148.72
"CCc1cc(C2OC(n3cnc4c(NCCS(=O)(=O)NC)nc(NC(CO)Cc5ccccc5)nc43)C(O)C2O)on1 (stereo not drawn) [Example 27, 2-[9-[5S-(3-Ethyl-isoxazol-5-yl)-3R,4S-dihydroxy-tetrahydro-furan-2R-yl]-2-(1S-hydroxymethyl-2-phenyl-ethylamino)-9H-purin-6-ylamino]-ethanesulfonic acid methylamide formate]",3,>273,3.18
"CCc1cc([C@H]2O[C@@H](n3cnc4c(NCCC(C)(C)C)nc(NCCc5cn(C)cn5)nc43)[C@H](O)[C@@H]2O)on1.O=CO.O=CO [Example 7, (2R,3R,4S,5S)-2-{6-(3,3-Dimethyl-butylamino)-2-[2-(1-methyl-1H-imidazol-4-yl)-ethylamino]-purin-9-yl}-5-(3-ethyl-isoxazol-5-yl)-tetrahydro-furan-3,4-diol diformate]",0.35,>312,>=309.4
"CCc1cc([C@H]2O[C@@H](n3cnc4c(NCC(c5ccccc5)c5ccccc5)nc(NCCO)nc43)[C@H](O)[C@@H]2O)on1.O=CO [Example 4, (2R,3R,4S,5S)-2-[6-(2,2-Diphenyl-ethylamino)-2-(2-hydroxy-ethylamino)-purin-9-yl]-5-(3-ethyl-isoxazol-5-yl)-tetrahydro-furan-3,4-diol formate]",0.92,>267,109.3
"CCc1cc(C2OC(n3cnc4c(NC5CCS(=O)(=O)CC5)nc(NCCN5CCCCC5)nc43)C(O)C2O)on1.O=CO.O=CO [Example 31, (2R,3R,4S,5S)-2-[6-(1,1-Dioxo-hexahydro-1λ6-thiopyran-4-ylamino)-2-(2-piperidin-1-yl-ethylamino)-purin-9-yl]-5-(3-ethyl-isoxazol-5-yl)-tetrahydro-furan-3,4-diol diformate]",10.59,>310,577.2
